Experimental findings from US7638554B2, “Flavanoids as chemotherapeutic, chemopreventive, and antiangiogenic agents” (SRI International, priority 2002, dated 2009) are described below.

One series concerns MMP-2. In words: Western blotting of cell-associated MMP-2 protein, MCF-10-CA1a cells. The class given is cell-based, human. Conditions: 1, 3, or 5 μM, 48 h. The source says: Western Blotting. Proteins were separated by gel electrophoresis using 4-12% pre-cast SDS-polyacrylamide gels (Invitrogen, Carlsbad, Calif.) and then electrophoretically transferred onto Hybond™-P membrane (Amersham Biosciences, Piscataway, N.J.). Blots were probed with specific antibodies (Santa Cruz Biotechnology, Inc). The ECL Plus Western Blotting Detection System of Amersham Biosciences (Piscataway, N.J.) and the procedure recommended by the manufacturer was used for the detection of antigens. Protein bands were quantified by analyzing the images obtained using an Alphaimager™ S-3400 (Alpha Innotech Corp., San Leandro, Calif.).
The effect of SR 13179 on cell-associated MMP-2 and MMP-9 protein levels was studied. MCF-10-CA1a cells were treated with SR 13179 at 1, 3, or 5 μM concentrations for 48 h. Untreated cells were used as control. Proteins were separated by SDS-Polyacrylamide gel electrophoresis and electrophoretically transformed onto Hybond™ P membrane (Amerhsam Biosciences). Blots were probed with specific antibodies (Santa Cruz Biotechnology Inc.).
On the technique in general: Immunoblotting shows a protein as a band on a membrane.

Series [1] concerns colon cancer cell line KM12. Nature of the series: Growth inhibition, sulforhodamine-based protein determination, KM12. The class given is cell-based. Conditions: Homo sapiens, KM12, 144 h; continuous exposure six days. The procedure: (§1) The novel compound SR 13179 was assayed for its ability to inhibit growth in several cancer cell lines. The cell lines studied included breast cancer cell line MCF-7 (ER+); prostate cancer cell lines LNCaP, PC3, and DU145; lung cancer cell line A427; ovarian cancer cell lines IGROV1, OVCAR-3, OVCAR-4, OVCAR-5, OVCAR-8, and SK-OV-3; and colon cancer cell lines COLO 205, HCC-2998, HCT-116, HCT-15, HT29, KM12, AND SW-620.
(§2) The growth assays for the breast cancer cell lines were conducted according to the method of Example 16. For the other cell lines, each assay was conducted with continuous exposure to the test compound at four log concentrations for six days, using a sulforhodamine-based protein determination to measure growth inhibition.

Series [2] relates to MCF-7 human breast cancer xenografts. Nature of the series: MCF-7 human breast cancer xenografts in nude mice, i.p. administration. Format: in vivo. The procedure:
To evaluate the in vivo activity of novel compound SR 13179 against breast cancer, the compound was administered to female BALB/c nude mice that had been implanted with breast cancer cells. In this experiment, MCF-7 human breast cancer cells (2.5×10^6 cells) were implanted subcutaneously in both flanks of each mouse. Two days after cell inoculation, one estradiol pellet (10 μg/pellet) was implanted into each mouse by subcutaneous implantation. When tumor volumes reached 100 mm^3 (Day 0), SR 13179 was administered at a dose of 12.5 mg/kg, 25 mg/kg and 50 mg/kg intraperitoneally (i.p.) once a day, as a suspension in 0.5% hydroxypropyl cellulose. Body weights and tumor volumes were measured twice a week for 14 days. The tumor volume was expressed as % of initial tumor size which was designated as 100% on Day 0.
(Xenograft models place foreign cells or tissue in a host animal.)

The subject of series [3] is colon cancer cell line HCC-2998. In words: Growth inhibition, sulforhodamine-based protein determination, HCC-2998. Format: cell-based. Conditions: Homo sapiens, HCC 2998, 144 h; continuous exposure six days. The procedure:
as §1, §2

Setting [4] is: 12.5, 25 and 50 mg/kg i.p. once a day.

A word on the IC50: it is the concentration needed to halve the response being measured.

Structures are written as SMILES.

`COc1cc(C2CC(O)c3ccc4ccccc4c3O2)cc(OC)c1OC` (stereo not shown) [SR 13179, 2-(3,4,5-trimethoxyphenyl)-3,4-dihydro-2H-benzo[h]chromen-4-ol]: the “cell-associated MMP-2 protein levels” value in the series on MMP-2 was “does not affect”. In addition, the IC50 in series [1] is 168 nM. Moreover, the tumor growth result in series [2] (12.5 mg/kg/day i.p., 14 days) was “complete suppression of tumor growth”. Also, the “tumor size compared to the size at Day 0” value in series [2] (50 mg/kg/day i.p., 14 days) is recorded as “slight regression in tumor size”. In addition, in series [2] (setting [4]), the “body weights of the treated mice” value was “unaffected” and the overt toxicity result is listed as “no overt toxicity was observed”. Moreover, the midpoint of inhibition in series [3], the IC50, lay at 278 nM.
